Measured values: the supplement of paper PMC13207355
Where a name gives a salt, the structure may show the parent alone.

How the values were obtained:
Details in all cases: exposure time: 72 h
[1] = test system: E31 (patient-derived glioblastoma stem cells of proneural subtype); test: surviving fraction (nuclei count normalised to DMSO); higher = more cells surviving (less toxic)
[2] = test system: FT3469 (normal neural stem cell line); test: as above
[3] = test system: E34 (patient-derived glioblastoma stem cells of proneural subtype); test: as above
[4] = test system: E21 (patient-derived glioblastoma stem cells of mesenchymal subtype); test: as above
[5] = test system: E28 (patient-derived glioblastoma stem cells of classical subtype); test: as above
[6] = test system: E57 (patient-derived glioblastoma stem cells of mesenchymal subtype); test: as above
[7] = test system: E13 (patient-derived glioblastoma stem cells of classical subtype); test: as above
[8] = test system: E31; test: phenotypic distance (Euclidean, principal components) from DMSO controls (arbitrary units); higher = stronger morphological change
[9] = test system: FT3469; test: as above
[10] = test system: E34; test: as above
[11] = test system: E21; test: as above
[12] = test system: E28; test: as above
[13] = test system: E57; test: as above
[14] = test system: E13; test: as above
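Wherever phenotypic distance (Euclidean, principal components) from DMSO controls is given: cell Painting imaging in 384-well plates, CellProfiler features reduced to at least 20 principal components, Euclidean distance versus same-plate DMSO vehicle wells (0.1% v/v), median over six images per well.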
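Wherever surviving fraction (nuclei count normalised to DMSO) is given: nuclei counted by high-content imaging of Hoechst-stained cells in laminin-coated 384-well plates, relative to 0.1% DMSO vehicle wells, with staurosporine as cell-death control.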

CCN(CC)CCCC(C)Nc1c2ccc(Cl)cc2nc2ccc(OC)cc12 (stereo not drawn) [Quinacrine dihydrochloride hydrate]
Details | phenotypic distance | surviving fraction
[1], 4.11523 nM | – | 0.883
[1], 12.34567901 nM | – | 1.02
[1], 37.037 nM | – | 1.06
[1], 111.1111111 nM | – | 1.14
[1], 333.333 nM | – | 0.914
[1], 1000 nM | – | 1.16
[1], 3000 nM | – | 0.516
[2], 4.11523 nM | – | 1.04
[2], 12.34567901 nM | – | 1.01
[2], 37.037 nM | – | 0.948
[2], 111.1111111 nM | – | 1.1
[2], 333.333 nM | – | 1.02
[2], 1000 nM | – | 1.1
[2], 3000 nM | – | 0.826
[3], 4.11523 nM | – | 0.882
[3], 12.34567901 nM | – | 0.943
[3], 37.037 nM | – | 0.902
[3], 111.1111111 nM | – | 0.99
[3], 333.333 nM | – | 1.21
[3], 1000 nM | – | 0.998
[3], 3000 nM | – | 0.806
[4], 4.11523 nM | – | 0.908
[4], 12.34567901 nM | – | 0.974
[4], 37.037 nM | – | 1
[4], 111.1111111 nM | – | 0.955
[4], 333.333 nM | – | 1.05
[4], 1000 nM | – | 1.09
[4], 3000 nM | – | 0.71
[5], 4.11523 nM | – | 1.09
[5], 12.34567901 nM | – | 1.03
[5], 37.037 nM | – | 0.987
[5], 111.1111111 nM | – | 1.11
[5], 333.333 nM | – | 1.05
[5], 1000 nM | – | 1.13
[5], 3000 nM | – | 0.69
[6], 4.11523 nM | – | 0.945
[6], 12.34567901 nM | – | 1.05
[6], 37.037 nM | – | 0.97
[6], 111.1111111 nM | – | 1.13
[6], 333.333 nM | – | 1.04
[6], 1000 nM | – | 1.1
[6], 3000 nM | – | 1.04
[7], 4.11523 nM | – | 0.934
[7], 12.34567901 nM | – | 0.901
[7], 37.037 nM | – | 0.789
[7], 111.1111111 nM | – | 0.985
[7], 333.333 nM | – | 0.993
[7], 1000 nM | – | 0.911
[7], 3000 nM | – | 0.709
[8], 4.11523 nM | 1.19 | –
[8], 12.34567901 nM | 0.694 | –
[8], 37.037 nM | 0.513 | –
[8], 111.1111111 nM | 0.784 | –
[8], 333.333 nM | 0.524 | –
[8], 1000 nM | 0.913 | –
[8], 3000 nM | 2.12 | –
[9], 4.11523 nM | 0.574 | –
[9], 12.34567901 nM | 0.546 | –
[9], 37.037 nM | 0.759 | –
[9], 111.1111111 nM | 0.562 | –
[9], 333.333 nM | 0.547 | –
[9], 1000 nM | 0.651 | –
[9], 3000 nM | 2.59 | –
[10], 4.11523 nM | 0.829 | –
[10], 12.34567901 nM | 1.53 | –
[10], 37.037 nM | 0.456 | –
[10], 111.1111111 nM | 0.849 | –
[10], 333.333 nM | 1.06 | –
[10], 1000 nM | 1.21 | –
[10], 3000 nM | 0.812 | –
[11], 4.11523 nM | 0.539 | –
[11], 12.34567901 nM | 0.4 | –
[11], 37.037 nM | 0.451 | –
[11], 111.1111111 nM | 0.853 | –
[11], 333.333 nM | 0.649 | –
[11], 1000 nM | 1.12 | –
[11], 3000 nM | 1.66 | –
[12], 4.11523 nM | 0.665 | –
[12], 12.34567901 nM | 0.451 | –
[12], 37.037 nM | 0.457 | –
[12], 111.1111111 nM | 0.704 | –
[12], 333.333 nM | 0.722 | –
[12], 1000 nM | 0.455 | –
[12], 3000 nM | 1.98 | –
[13], 4.11523 nM | 1.09 | –
[13], 12.34567901 nM | 1.14 | –
[13], 37.037 nM | 0.424 | –
[13], 111.1111111 nM | 0.923 | –
[13], 333.333 nM | 0.838 | –
[13], 1000 nM | 1.18 | –
[13], 3000 nM | 2.11 | –
[14], 4.11523 nM | 0.636 | –
[14], 12.34567901 nM | 0.492 | –
[14], 37.037 nM | 0.777 | –
[14], 111.1111111 nM | 0.595 | –
[14], 333.333 nM | 2.11 | –
[14], 1000 nM | 3.45 | –
[14], 3000 nM | 1.42 | –
